Source: patent US20130317037A1, “METHOD OF ADMINISTRATION AND TREATMENT” (GlaxoSmithKline Intellectual Property Development Limited, priority 2010, published 2013)
Like-named read-outs stand apart in the source and are kept apart here.

Columns and labels:
ZR-75-1 = test: Panel A proliferation assay (CellTiter-Glo); HER2 2 copies, KRAS WT, PIK3CA WT; format: cell-based, human; details: for IC50: Homo sapiens
Procedure: (§1) A total of 15 breast cancer cell lines were used in this study. These cells were cultured in RPMI-1640 and supplemented with 5% or 10% fetal bovine serum, 2 mM GlutaMAX™ and 1 mM sodium pyruvate, or in growth medium recommended by the suppliers [American Type Culture Collection, Manassas, Va., USA; Developmental Therapeutics Program, National Cancer Institute, Bethesda, Md., USA; German Collection of Microorganisms and Cell Cultures (DSMZ), Braunschweig, Germany; European Collection of Cell Cultures (ECACC), Porton Down, UK]. Cells of each line were seeded into a 384-well microtiter plate at two cell densities. Low density ranges were 300-1800 cells/well, and a high density was 600 to 3600 cells/well). The plating density was determined by the rate of proliferation of the cell line in the absence of any inhibitor and varied amongst cell lines. High plating densities were double that of low density. Each cell density was plated in triplicate. In total there were 30 wells to be treated with increasing concentrations of Compound B for each cell line at each density. In addition, there were 24 wells of dimethyl sulfoxide (DMSO)-treated controls at each density. After seeding, the cells were incubated at 37° C. in 5% CO2 for 24 hours. Subsequently, Compound B was added to each cell line with 10 concentrations. The dosing solution of Compound B was first prepared in DMSO at a master stock concentration of 10 mM. […] were then made of the stock solution to give a range of working stock concentrations; 10.00 mM, 3.164 mM, 1.001 mM, 316.9 μM, 100.3 μM, 31.74 μM, 10.04 μM, 3.178 μM, 1.006 μM and 318.3 nM. The working stock concentrations of Compound B were then dispensed into the seeded cancer cell lines using a Biomek FX liquid handler to give final treatment concentrations of 0.1% of the stock concentration. A similar volume of DMSO without Compound B was dispensed into the 24 control wells of each seeding density at a concentration of 0.1%. Also, a zero-time plate prepared with a similar cell seeding was read for each cell line at each seeding density immediately after the addition of the DMSO control. After a 72 h incubation, an equal volume of the CellTiter-Glo (CellTiter-Glo Luminescent Cell Viability Assay, Promega, Madison, Wis.) to that of the cell culture medium was added into each well of the plate. After the contents were mixed to induce cell lysis and stabilization, cell luminescence was recorded using a SpectraMax M5^e (Molecular Devices, Sunnyvale, Calif., USA)
(§2) The luminescence of Compound B treated cells was compared relative to the average of the 24 DMSO-treated control wells at each cell density for every concentration of Compound B for all triplicate wells. The percent intensity values were used in model 205 of XLfit in Microsoft Excel to calculate gIC50s for the low and high seeding density (a 4 parameter logistical fit). Specifically, the midpoint of the growth window (the gIC50) falls half way between the number of cells at the time of compound addition (T=0) and the growth of control cells treated with DMSO. The gIC50 value serves as a metric for measuring the inhibition of proliferation in cancer cells. The curves for each seeding density for each cell line were manually inspected for both data quality and appropriateness of curve fitting. Where the starting data were poor the curve and subsequent gIC50s were excluded from further analysis. Cell line seedings were considered of poor quality when the r^2 value of the fitted curve was <0.75. Finally, where data quality permits, the Ymin values (defined as the maximum growth inhibition relative to the cell density at Time-zero) were calculated as a measure of cytotoxicity where data were of reasonable quality.

PI3K family of enzymes = test: Selectivity in a large panel of protein kinases; format: biochemical
KPL-1 = test: Panel A proliferation assay (CellTiter-Glo); HER2 2 copies, KRAS WT, PIK3CA p.E545K; format: cell-based, human; details: for IC50: Homo sapiens
Procedure: A total of 15 breast cancer cell lines were used in this study. […] Cells of each line were seeded into a 384-well microtiter plate at two cell densities. Low density ranges were 300-1800 cells/well, and a high density was 600 to 3600 cells/well). The plating density was determined by the rate of proliferation of the cell line in the absence of any inhibitor and varied amongst cell lines. High plating densities were double that of low density. Each cell density was plated in triplicate. […] In addition, there were 24 wells of dimethyl sulfoxide (DMSO)-treated controls at each density. After seeding, the cells were incubated at 37° C. in 5% CO2 for 24 hours. […] After a 72 h incubation, an equal volume of the CellTiter-Glo (CellTiter-Glo Luminescent Cell Viability Assay, Promega, Madison, Wis.) to that of the cell culture medium was added into each well of the plate. After the contents were mixed to induce cell lysis and stabilization, cell luminescence was recorded using a SpectraMax M5^e (Molecular Devices, Sunnyvale, Calif., USA)
as §2, with “Specifically,” for “The luminescence of Compound B treated cells was compared relative to the average of the 24 DMSO-treated control wells at each cell density for every concentration of Compound B for all triplicate wells. The percent intensity values were used in model 205 of XLfit in Microsoft Excel to calculate gIC50s for the low and high seeding density (a 4 parameter logistical fit). Specifically,”

SK-BR-3 = test: Panel A proliferation assay (CellTiter-Glo); HER2 Gain ≧5, KRAS WT, PIK3CA WT; format: cell-based, human; details: for IC50: Homo sapiens
Procedure: as §1, §2

UACC-812 = test: as above; format: cell-based, human; details: for IC50: Homo sapiens
Procedure: as §1, §2

EFM-19 = test: Panel A proliferation assay (CellTiter-Glo); HER2 Gain <5, KRAS WT, PIK3CA p.H1047L; format: cell-based, human; details: for IC50: Homo sapiens
Procedure: as §1
as §2, with “The curves for each seeding density for each cell line were manually inspected for both data quality and appropriateness of curve fitting. Where the starting data were poor the curve and subsequent gIC50s were excluded from further analysis. Cell line seedings were considered of poor quality when the r^2 value of the fitted curve was <0.75.” left out

With `COc1ncc(-c2ccc3nccc(-c4ccnnc4)c3c2)cc1NS(=O)(=O)c1ccc(F)cc1F` [Compound B, 2,4-difluoro-N-{2-(methyloxy)-5-[4-(4-pyridazinyl)-6-quinolinyl]-3-pyridinyl}benzenesulfonamide] the IC50 (ZR-75-1; ZR-75-1, high seeding density, 72 h, read-out: High Density gIC50) was 0.9 nM, the IC50 (ZR-75-1; ZR-75-1, low seeding density, 72 h, read-out: Low Density gIC50) was 0.8 nM and the IC50 (ZR-75-1; ZR-75-1, mean of low and high density, read-out: Mean gIC50) was 0.85 nM. The “High Density Y-Min” value (ZR-75-1; ZR-75-1, high density, % of cells at T = 0) was 22.1%, the “Low Density Y-Min” value (ZR-75-1; ZR-75-1, low density, % of cells at T = 0) was 19.8% and the “selectivity for the PI3K family of enzymes” value (PI3K family of enzymes) was “good selectivity”. The IC50 (KPL-1; KPL-1, high seeding density, 72 h, read-out: High Density gIC50) was 2.7 nM, the IC50 (KPL-1; KPL-1, low seeding density, 72 h, read-out: Low Density gIC50) was 2 nM and the IC50 (KPL-1; KPL-1, mean of low and high density, read-out: Mean gIC50) was 2.35 nM. The “High Density Y-Min” value (KPL-1; KPL-1, high density, % of cells at T = 0) was 130.2%, the “Low Density Y-Min” value (KPL-1; KPL-1, low density, % of cells at T = 0) was 126.6% and the IC50 (SK-BR-3; SK-BR-3, high seeding density, 72 h, read-out: High Density gIC50) was 4.2 nM. The IC50 (SK-BR-3; SK-BR-3, low seeding density, 72 h, read-out: Low Density gIC50) was 2.9 nM, the IC50 (SK-BR-3; SK-BR-3, mean of low and high density, read-out: Mean gIC50) was 3.55 nM and the “High Density Y-Min” value (SK-BR-3; SK-BR-3, high density, % of cells at T = 0) was 54.5%. The “Low Density Y-Min” value (SK-BR-3; SK-BR-3, low density, % of cells at T = 0) was 52.3%, the IC50 (UACC-812; UACC-812, high seeding density, 72 h, read-out: High Density gIC50) was 0.1 nM and the IC50 (UACC-812; UACC-812, low seeding density, 72 h, read-out: Low Density gIC50) was 0.1 nM. For the same compound, the IC50 (UACC-812; UACC-812, mean of low and high density, read-out: Mean gIC50) was 0.1 nM, the “High Density Y-Min” value (UACC-812; UACC-812, high density, % of cells at T = 0) was 12.6% and the “Low Density Y-Min” value (UACC-812; UACC-812, low density, % of cells at T = 0) was 12.1%. The “High Density Y-Min” value (EFM-19; EFM-19, high density, % of cells at T = 0) was 22.7%, the “Low Density Y-Min” value (EFM-19; EFM-19, low density, % of cells at T = 0) was 24.1% and the IC50 (EFM-19; EFM-19, high seeding density, 72 h, read-out: High Density gIC50) was 0.5 nM. It also gave an IC50 (EFM-19; EFM-19, low seeding density, 72 h, read-out: Low Density gIC50) of 0.6 nM and an IC50 (EFM-19; EFM-19, mean of low and high density, read-out: Mean gIC50) of 0.55 nM.
